This note sets out measurements from ChEMBL document CHEMBL5143608, “Peptide-based long-acting co-agonists of GLP-1 and cholecystokinin 1 receptors as novel anti-diabesity agents” (Eur J Med Chem, 2022).

Active and inactive are the calls of the source. The rule behind the calls is not given here. Where a SMILES comes first, the peptide text is derived from it. [ ]: non-standard residue; d: D form. Aib = CC(C)(N)C(=O)O Bounds are passed on as bounds.

In data set [1] the target is Glucagon-like peptide 1 receptor (Homo sapiens, UniProt P43220). The experiment in a line: Agonist activity at human GLP-1R expressed in HEK293 cells assessed as cAMP release incubated for 20 min by HTRF analysis. The format is functional, cell-based.
Sequence of Glucagon-like peptide 1 receptor (P43220 whole entry): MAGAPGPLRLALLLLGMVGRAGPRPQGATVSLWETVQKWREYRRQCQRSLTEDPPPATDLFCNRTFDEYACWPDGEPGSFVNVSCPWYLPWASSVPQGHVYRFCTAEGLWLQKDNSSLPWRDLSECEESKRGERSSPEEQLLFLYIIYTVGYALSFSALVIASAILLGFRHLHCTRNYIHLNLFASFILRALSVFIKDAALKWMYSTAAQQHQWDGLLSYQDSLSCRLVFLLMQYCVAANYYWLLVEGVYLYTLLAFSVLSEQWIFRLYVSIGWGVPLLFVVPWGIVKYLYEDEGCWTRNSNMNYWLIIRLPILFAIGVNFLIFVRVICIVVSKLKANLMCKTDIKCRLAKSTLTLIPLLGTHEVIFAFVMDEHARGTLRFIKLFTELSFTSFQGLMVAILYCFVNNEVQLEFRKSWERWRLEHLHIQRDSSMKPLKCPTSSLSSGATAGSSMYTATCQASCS
The target of data set [2] is T1, Cholecystokinin receptor type A (Homo sapiens, UniProt P32238).
T1 sequence (P32238 whole entry): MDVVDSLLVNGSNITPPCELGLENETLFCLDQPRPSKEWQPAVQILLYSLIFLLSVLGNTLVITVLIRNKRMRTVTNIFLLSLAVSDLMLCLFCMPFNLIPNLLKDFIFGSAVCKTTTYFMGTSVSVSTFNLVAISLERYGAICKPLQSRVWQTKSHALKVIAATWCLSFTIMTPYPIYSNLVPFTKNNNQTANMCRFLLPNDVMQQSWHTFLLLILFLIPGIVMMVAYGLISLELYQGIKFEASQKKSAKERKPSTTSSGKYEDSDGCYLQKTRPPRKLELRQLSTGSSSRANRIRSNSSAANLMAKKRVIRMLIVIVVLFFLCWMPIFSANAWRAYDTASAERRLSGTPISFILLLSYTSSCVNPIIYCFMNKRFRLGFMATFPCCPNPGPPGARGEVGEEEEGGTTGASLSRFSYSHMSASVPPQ
The experiment in a line: Agonist activity at human CCK1R expressed in HEK293 cells assessed as ERK1/2 phosphorylation incubated for 5 mins by AlphaScreen assay. The format is functional, cell-based. As to conditions: hek293.

In data set [3] the target is T2, CCK2R (gastrin/cholecystokinin type B receptor) (Homo sapiens, UniProt P32239).
T2 sequence (P32239 whole entry): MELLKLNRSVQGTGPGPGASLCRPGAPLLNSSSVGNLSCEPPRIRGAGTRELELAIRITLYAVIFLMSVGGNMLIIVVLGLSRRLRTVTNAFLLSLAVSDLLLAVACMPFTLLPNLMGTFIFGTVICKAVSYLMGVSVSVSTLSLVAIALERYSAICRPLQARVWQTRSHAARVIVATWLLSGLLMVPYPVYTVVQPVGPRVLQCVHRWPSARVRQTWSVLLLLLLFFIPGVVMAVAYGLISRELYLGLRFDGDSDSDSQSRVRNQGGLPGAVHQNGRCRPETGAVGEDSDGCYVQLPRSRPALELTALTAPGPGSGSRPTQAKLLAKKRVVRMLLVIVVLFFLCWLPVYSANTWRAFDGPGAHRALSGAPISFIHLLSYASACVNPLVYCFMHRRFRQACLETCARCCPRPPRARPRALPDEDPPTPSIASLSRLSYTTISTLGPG
The experiment in a line: Agonist activity at human CCK2R expressed in HEK293 cells assessed as ERK1/2 phosphorylation incubated for 5 mins by AlphaScreen assay. In kind it is functional, cell-based. As to conditions: human, HEK293 cells expressing human CCK2R.

Data set [4] has as its system Mus musculus. Description: Hypoglycemic activity in ICR mouse assessed as improvement in glucose tolerance at 25 nmol/kg, ip administered 30 min before oral glucose administration and measured upto 120 mins by OGTT. In kind it is functional, organism-based.
Data set [5] has as its system Mus musculus. Description: Anorectic activity in ICR mouse assessed as decrease in food intake at 25 nmol/kg, ip and measured after 9 hrs. The format is functional, organism-based.
Data set [6] deals with Mus musculus. Description: Anorectic activity in ICR mouse assessed as decrease in food intake at 25 nmol/kg, ip and measured after 24 hrs. The format is functional, organism-based.

As for `CCCC[C@H](NC(=O)[C@H](Cc1ccc(CS(=O)(=O)O)cc1)NC(=O)[C@H](CC(=O)O)NC(=O)COCCOCCNC(=O)COCCOCCNC(=O)[C@H](CCCCN)NC(=O)CNC(=O)[C@H](CCCCNC(=O)COCCOCCNC(=O)COCCOCCNC(=O)CC[C@H](NC(=O)CCCCCCCCCCCCCCCCC(=O)O)C(=O)O)NC(=O)[C@@H](NC(=O)[C@H](CC(C)C)NC(=O)[C@H](Cc1c[nH]c2ccccc12)NC(=O)[C@H](CCC(=O)O)NC(=O)[C@@H](NC(=O)[C@H](Cc1ccccc1)NC(=O)[C@H](CCC(=O)O)NC(=O)[C@H](CCCCN)NC(=O)[C@H](C)NC(=O)[C@H](C)NC(=O)[C@H](CCC(=O)O)NC(=O)[C@H](CCC(=O)O)NC(=O)[C@H](CCC(=O)O)NC(=O)[C@H](CC(C)C)NC(=O)[C@@H](NC(=O)[C@H](CCC(=O)O)NC(=O)[C@@H](NC(=O)[C@@H](NC(=O)[C@H](CC(=O)O)NC(=O)[C@H](CC(N)=O)NC(=O)[C@@H](NC(=O)[C@H](Cc1ccc(O)cc1)NC(=O)[C@@H](NC(=O)CNC(=O)[C@H](CCC(=O)O)NC(=O)C(C)(C)NC(=O)[C@@H](N)Cc1cnc[nH]1)[C@@H](C)O)[C@@H](C)O)C(C)C)[C@@H](C)O)[C@@H](C)O)[C@@H](C)CC)[C@@H](C)CC)C(=O)NCC(=O)N[C@@H](Cc1c[nH]c2ccccc12)C(=O)N[C@@H](CCCC)C(=O)N(C)[C@H](CC(=O)O)C(=O)N(C)[C@@H](Cc1ccccc1)C(N)=O`, the EC50 in data set [1] (hek293) is 0.31 nM; in data set [2], 1.03 nM. The half-maximal effective concentration (EC50) at 5 min in data set [3] is more than 100 nM. For the same compound, the result with Mus musculus [4], in the data set on Mus musculus [5] and in the data set with Mus musculus [6] was Active.
`CCCC[C@H](NC(=O)[C@H](Cc1ccc(CS(=O)(=O)O)cc1)NC(=O)[C@H](CC(=O)O)NC(=O)COCCOCCNC(=O)COCCOCCNC(=O)[C@H](CCCCN)NC(=O)CNC(=O)[C@H](CCCCN)NC(=O)[C@@H](NC(=O)[C@H](CC(C)C)NC(=O)[C@H](Cc1c[nH]c2ccccc12)NC(=O)[C@H](CCC(=O)O)NC(=O)[C@@H](NC(=O)[C@H](Cc1ccccc1)NC(=O)[C@H](CCC(=O)O)NC(=O)[C@H](CCCCN)NC(=O)[C@H](C)NC(=O)[C@H](C)NC(=O)[C@H](CCC(=O)O)NC(=O)[C@H](CCC(=O)O)NC(=O)[C@H](CCC(=O)O)NC(=O)[C@H](CC(C)C)NC(=O)[C@@H](NC(=O)[C@H](CCC(=O)O)NC(=O)[C@@H](NC(=O)[C@@H](NC(=O)[C@H](CC(=O)O)NC(=O)[C@H](CC(N)=O)NC(=O)[C@@H](NC(=O)[C@H](Cc1ccc(O)cc1)NC(=O)[C@@H](NC(=O)CNC(=O)[C@H](CCC(=O)O)NC(=O)C(C)(C)NC(=O)[C@@H](N)Cc1cnc[nH]1)[C@@H](C)O)[C@@H](C)O)C(C)C)[C@@H](C)O)[C@@H](C)O)[C@@H](C)CC)[C@@H](C)CC)C(=O)NCC(=O)N[C@@H](Cc1c[nH]c2ccccc12)C(=O)N[C@@H](CCCC)C(=O)N(C)[C@H](CC(=O)O)C(=O)N(C)[C@@H](Cc1ccccc1)C(N)=O`: the EC50 in data set [1] (hek293) is 0.092 nM; in data set [2], 0.95 nM. In data set [3], the 50% effective concentration (EC50) at 5 min was more than 100 nM. Also, the result in the data set with Mus musculus [4], with Mus musculus [5] and in the data set with Mus musculus [6] was Active.
Turning to `CCCC[C@H](NC(=O)[C@H](Cc1ccc(CS(=O)(=O)O)cc1)NC(=O)[C@H](CC(=O)O)NC(=O)COCCOCCNC(=O)COCCOCCNC(=O)[C@H](CCCNC(=N)N)NC(=O)CNC(=O)[C@H](CCCCNC(=O)COCCOCCNC(=O)COCCOCCNC(=O)CC[C@H](NC(=O)CCCCCCCCCCCCCCCCC(=O)O)C(=O)O)NC(=O)[C@@H](NC(=O)[C@H](CC(C)C)NC(=O)[C@H](Cc1c[nH]c2ccccc12)NC(=O)[C@H](C)NC(=O)[C@@H](NC(=O)[C@H](Cc1ccccc1)NC(=O)[C@H](CCC(=O)O)NC(=O)[C@H](CCCCN)NC(=O)[C@H](C)NC(=O)[C@H](C)NC(=O)[C@H](CCC(N)=O)NC(=O)CNC(=O)[C@H](CCC(=O)O)NC(=O)[C@H](CC(C)C)NC(=O)[C@H](Cc1ccc(O)cc1)NC(=O)[C@H](CO)NC(=O)[C@H](CO)NC(=O)[C@@H](NC(=O)[C@H](CC(=O)O)NC(=O)[C@H](CO)NC(=O)[C@@H](NC(=O)[C@H](Cc1ccccc1)NC(=O)[C@@H](NC(=O)CNC(=O)[C@H](CCC(=O)O)NC(=O)[C@H](C)NC(=O)[C@@H](N)Cc1cnc[nH]1)[C@@H](C)O)[C@@H](C)O)C(C)C)[C@@H](C)CC)C(C)C)C(=O)NCC(=O)N[C@@H](Cc1c[nH]c2ccccc12)C(=O)N[C@@H](CCCC)C(=O)N(C)[C@H](CC(=O)O)C(=O)N(C)[C@@H](Cc1ccccc1)C(N)=O`, the EC50 in data set [2] stood at 1.19 nM. Further, in data set [3], the EC50 at 5 min was more than 100 nM. Besides, the outcome with Mus musculus [5] and in the data set with Mus musculus [6] was Active.
For `CC[C@H](C)[C@H](NC(=O)[C@H](CC(C)C)NC(=O)[C@H](Cc1c[nH]c2ccccc12)NC(=O)[C@H](CCC(=O)O)NC(=O)[C@@H](NC(=O)[C@H](Cc1ccccc1)NC(=O)[C@H](CCC(=O)O)NC(=O)[C@H](CCCCN)NC(=O)[C@H](C)NC(=O)[C@H](C)NC(=O)[C@H](CCC(=O)O)NC(=O)[C@H](CCC(=O)O)NC(=O)[C@H](CCC(=O)O)NC(=O)[C@H](CC(C)C)NC(=O)[C@@H](NC(=O)[C@H](CCC(=O)O)NC(=O)[C@@H](NC(=O)[C@@H](NC(=O)[C@H](CC(=O)O)NC(=O)[C@H](CC(N)=O)NC(=O)[C@@H](NC(=O)[C@H](Cc1ccc(O)cc1)NC(=O)[C@@H](NC(=O)CNC(=O)[C@H](CCC(=O)O)NC(=O)C(C)(C)NC(=O)[C@@H](N)Cc1cnc[nH]1)[C@@H](C)O)[C@@H](C)O)C(C)C)[C@@H](C)O)[C@@H](C)O)[C@@H](C)CC)C(=O)N[C@@H](CCCCN)C(=O)NCC(=O)N[C@@H](CCCCN)C(N)=O` (H-H[Aib]EGTYTNDVTETLEEEAAKEFIEWLIKGK-NH2), the EC50 in data set [1] came out at 0.056 nM.
In the case of `CCCC[C@H](NC(=O)[C@H](Cc1ccc(CS(=O)(=O)O)cc1)NC(=O)[C@H](CC(=O)O)NC(=O)COCCOCCNC(=O)COCCOCCNC(=O)[C@H](CCCNC(=N)N)NC(=O)CNC(=O)[C@H](CCCCN)NC(=O)[C@@H](NC(=O)[C@H](CC(C)C)NC(=O)[C@H](Cc1c[nH]c2ccccc12)NC(=O)[C@H](C)NC(=O)[C@@H](NC(=O)[C@H](Cc1ccccc1)NC(=O)[C@H](CCC(=O)O)NC(=O)[C@H](CCCCN)NC(=O)[C@H](C)NC(=O)[C@H](C)NC(=O)[C@H](CCC(N)=O)NC(=O)CNC(=O)[C@H](CCC(=O)O)NC(=O)[C@H](CC(C)C)NC(=O)[C@H](Cc1ccc(O)cc1)NC(=O)[C@H](CO)NC(=O)[C@H](CO)NC(=O)[C@@H](NC(=O)[C@H](CC(=O)O)NC(=O)[C@H](CO)NC(=O)[C@@H](NC(=O)[C@H](Cc1ccccc1)NC(=O)[C@@H](NC(=O)CNC(=O)[C@H](CCC(=O)O)NC(=O)[C@H](C)NC(=O)[C@@H](N)Cc1cnc[nH]1)[C@@H](C)O)[C@@H](C)O)C(C)C)[C@@H](C)CC)C(C)C)C(=O)NCC(=O)N[C@@H](Cc1c[nH]c2ccccc12)C(=O)N[C@@H](CCCC)C(=O)N(C)[C@H](CC(=O)O)C(=O)N(C)[C@@H](Cc1ccccc1)C(N)=O`, in data set [2], the 50% effective concentration (EC50) worked out at 1.14 nM. Moreover, the half-maximal effective concentration (EC50) at 5 min in data set [3] was more than 100 nM. Also, the outcome in the data set with Mus musculus [4], in the data set with Mus musculus [5] and with Mus musculus [6] was Active.

For orientation: EC50 means the concentration that produces a half-maximal response.
